# Measured values as given in ChEMBL document CHEMBL1681715, “4-aminopyrimidine-5-carbaldehyde oximes as potent VEGFR-2 inhibitors. Part II” (Bioorg Med Chem Lett, 2011).
# Active and inactive are the calls of the source. The rule behind the calls is not given here.
# Experiments:
# [1] = target: Vascular endothelial growth factor receptor 2 (Homo sapiens, UniProt P35968)
# [2] = Half life in rat at 10 mg/kg, po; type: ADME, organism-based; set-up: dose 10 mg/kg, route oral; conditions: in vivo
# Rattus norvegicus [3] = test: Oral bioavailability in rat at 10 mg/kg; type: ADME, organism-based; conditions: in vivo
# Mus musculus [4] = test: Toxicity in mouse assessed as body weight at 100 to 200 mg/kg, po after 24 days; type: organism-based; set-up: dose 100-200 mg/kg, route oral; conditions: in vivo, 576 h
# [5] = target: T1, Receptor-type tyrosine-protein kinase FLT3 (Homo sapiens, UniProt P36888); test: Inhibition of FLT3
# T1 sequence (P36888 whole entry): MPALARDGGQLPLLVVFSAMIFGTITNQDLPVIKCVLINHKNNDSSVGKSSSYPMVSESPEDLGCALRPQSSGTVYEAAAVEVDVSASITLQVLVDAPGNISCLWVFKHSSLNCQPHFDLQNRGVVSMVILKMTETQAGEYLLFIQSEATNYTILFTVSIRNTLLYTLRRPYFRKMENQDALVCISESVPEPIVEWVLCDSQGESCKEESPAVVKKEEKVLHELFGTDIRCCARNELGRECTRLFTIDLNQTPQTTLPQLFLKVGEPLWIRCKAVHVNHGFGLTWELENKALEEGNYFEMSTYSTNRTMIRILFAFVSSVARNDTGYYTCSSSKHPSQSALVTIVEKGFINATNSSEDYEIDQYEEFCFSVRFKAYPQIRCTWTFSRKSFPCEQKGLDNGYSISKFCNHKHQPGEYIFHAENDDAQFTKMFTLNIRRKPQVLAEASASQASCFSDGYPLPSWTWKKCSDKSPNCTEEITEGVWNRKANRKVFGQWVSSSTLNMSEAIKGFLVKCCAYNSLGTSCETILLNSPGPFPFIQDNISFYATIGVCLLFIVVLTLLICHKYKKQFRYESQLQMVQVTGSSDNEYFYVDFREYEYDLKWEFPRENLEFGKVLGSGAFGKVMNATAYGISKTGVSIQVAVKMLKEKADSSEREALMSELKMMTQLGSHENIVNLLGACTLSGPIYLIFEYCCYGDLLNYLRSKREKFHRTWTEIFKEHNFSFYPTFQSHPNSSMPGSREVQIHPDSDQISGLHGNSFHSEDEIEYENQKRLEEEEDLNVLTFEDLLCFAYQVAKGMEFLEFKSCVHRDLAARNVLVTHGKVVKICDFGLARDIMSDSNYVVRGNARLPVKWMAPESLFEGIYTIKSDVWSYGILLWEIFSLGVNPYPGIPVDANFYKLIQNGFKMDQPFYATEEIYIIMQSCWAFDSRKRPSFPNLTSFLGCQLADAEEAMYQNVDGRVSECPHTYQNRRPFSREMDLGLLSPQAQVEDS
# [6] = Cmax in rat at 2 mg/kg, iv; type: ADME, organism-based; set-up: dose 2 mg/kg, route intravenous; conditions: in vivo
# [7] = Cmax in rat at 10 mg/kg, po; type: ADME, organism-based; set-up: dose 10 mg/kg, route oral; conditions: in vivo
# A-431 [8] = test: Antitumor activity against human A431 cells xenografted po dosed mouse model measured after 10 to 14 days; type: functional, organism-based
# A-431 [9] = test: Antitumor activity against human A431 cells xenografted mouse model measured at 100 to 200 mg/kg, po after 10 to 14 days; type: functional
# [10] = target: Mast/stem cell growth factor receptor Kit (Homo sapiens, UniProt P10721); test: Inhibition of KIT
# [11] = target: Vascular endothelial growth factor receptor 1 (Homo sapiens, UniProt P17948); test: Inhibition of FLT1
# A-375 [12] = test: Antitumor activity against human A375 cells xenografted mouse model assessed as growth inhibition at 100 mg/kg, po; type: functional
# HCT-116 [13] = test: Antitumor activity against human HCT116 cells xenografted mouse model measured at 100 to 200 mg/kg, po after 10 to 14 days; type: functional
# Mus musculus [14] = test: AUC in BALB/c mouse at 2 mg/kg, iv; type: ADME, organism-based, Plasma; set-up: dose 2 mg/kg, route intravenous; conditions: in vivo
# [15] = Volume of distribution at steady state in BALB/c mouse at 2 mg/kg, iv; type: ADME, organism-based; set-up: dose 2 mg/kg, route intravenous; conditions: in vivo, read-out: Vdss
# Mus musculus [16] = test: Oral bioavailability in BALB/c mouse at 10 mg/kg; type: ADME, organism-based; conditions: in vivo
# Mus musculus [17] = test: AUC in BALB/c mouse at 10 mg/kg, po; type: ADME, organism-based, Plasma; set-up: dose 10 mg/kg, route oral; conditions: in vivo
# [18] = Clearance in BALB/c mouse at 2 mg/kg, iv; type: ADME, organism-based; set-up: dose 2 mg/kg, route intravenous; conditions: in vivo
# HCT-116 [19] = test: Antiproliferative activity against human HCT116 cells at 100 uM; type: functional, cell-based
# HCT-116 [20] = test: Antitumor activity against human HCT116 cells xenografted po dosed mouse model measured after 10 to 14 days; type: functional, organism-based
# [21] = Clearance in rat at 2 mg/kg, iv; type: ADME, organism-based; set-up: dose 2 mg/kg, route intravenous; conditions: in vivo
# [22] = Half life in BALB/c mouse at 10 mg/kg, po; type: ADME, organism-based; set-up: dose 10 mg/kg, route oral; conditions: in vivo
# [23] = Cmax in BALB/c mouse at 2 mg/kg, iv; type: ADME, organism-based; set-up: dose 2 mg/kg, route intravenous; conditions: in vivo
# [24] = Half life in rat at 2 mg/kg, iv; type: ADME, organism-based; set-up: dose 2 mg/kg, route intravenous; conditions: in vivo
# [25] = Half life in BALB/c mouse at 2 mg/kg, iv; type: ADME, organism-based; set-up: dose 2 mg/kg, route intravenous; conditions: in vivo
# [26] = Cmax in BALB/c mouse at 10 mg/kg, po; type: ADME, organism-based; set-up: dose 10 mg/kg, route oral; conditions: in vivo
# A-375 [27] = test: Antiproliferative activity against human A375 cells at 100 uM; type: functional, cell-based
# [28] = Volume of distribution at steady state in rat at 2 mg/kg, iv; type: ADME, organism-based; set-up: dose 2 mg/kg, route intravenous; conditions: in vivo, read-out: Vdss
# Rattus norvegicus [29] = test: AUC in rat at 2 mg/kg, iv; type: ADME, organism-based, Plasma; set-up: dose 2 mg/kg, route intravenous; conditions: in vivo
# Sequence of Vascular endothelial growth factor receptor 2 (P35968 whole entry): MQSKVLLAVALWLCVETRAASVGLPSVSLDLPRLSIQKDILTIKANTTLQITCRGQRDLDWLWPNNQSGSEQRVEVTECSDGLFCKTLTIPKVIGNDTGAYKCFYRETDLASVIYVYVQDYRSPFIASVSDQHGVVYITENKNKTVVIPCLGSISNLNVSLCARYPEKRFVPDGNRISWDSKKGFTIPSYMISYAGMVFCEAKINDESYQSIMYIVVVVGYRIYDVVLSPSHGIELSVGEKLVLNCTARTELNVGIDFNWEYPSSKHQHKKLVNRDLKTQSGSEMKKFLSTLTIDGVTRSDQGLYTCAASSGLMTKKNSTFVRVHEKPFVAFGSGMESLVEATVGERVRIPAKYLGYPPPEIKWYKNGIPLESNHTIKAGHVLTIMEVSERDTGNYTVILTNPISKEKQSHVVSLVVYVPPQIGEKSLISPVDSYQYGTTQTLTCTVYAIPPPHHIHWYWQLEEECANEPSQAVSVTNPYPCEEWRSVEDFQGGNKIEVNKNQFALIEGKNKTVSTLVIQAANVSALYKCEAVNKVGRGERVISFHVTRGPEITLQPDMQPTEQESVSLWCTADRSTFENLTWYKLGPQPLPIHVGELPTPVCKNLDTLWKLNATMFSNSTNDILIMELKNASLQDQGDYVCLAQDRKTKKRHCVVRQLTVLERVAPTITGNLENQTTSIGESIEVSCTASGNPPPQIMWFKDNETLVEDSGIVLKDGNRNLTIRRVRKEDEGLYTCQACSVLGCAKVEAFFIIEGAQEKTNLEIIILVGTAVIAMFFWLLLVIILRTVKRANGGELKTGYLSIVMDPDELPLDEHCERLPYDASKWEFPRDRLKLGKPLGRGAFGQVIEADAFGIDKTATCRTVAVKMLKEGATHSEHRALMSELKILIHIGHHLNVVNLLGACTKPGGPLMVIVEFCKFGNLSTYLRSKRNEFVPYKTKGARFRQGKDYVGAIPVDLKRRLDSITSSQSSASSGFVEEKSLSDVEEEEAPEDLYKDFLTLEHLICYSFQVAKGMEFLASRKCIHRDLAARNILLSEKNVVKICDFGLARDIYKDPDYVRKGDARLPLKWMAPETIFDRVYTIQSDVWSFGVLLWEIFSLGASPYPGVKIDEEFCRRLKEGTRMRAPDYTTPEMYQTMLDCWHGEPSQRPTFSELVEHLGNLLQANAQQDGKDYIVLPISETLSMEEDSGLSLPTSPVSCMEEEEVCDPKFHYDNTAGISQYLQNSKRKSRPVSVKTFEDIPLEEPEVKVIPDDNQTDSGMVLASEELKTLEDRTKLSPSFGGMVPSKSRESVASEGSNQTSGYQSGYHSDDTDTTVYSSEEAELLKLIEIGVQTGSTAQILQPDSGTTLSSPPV
# Sequence of Mast/stem cell growth factor receptor Kit (P10721 whole entry): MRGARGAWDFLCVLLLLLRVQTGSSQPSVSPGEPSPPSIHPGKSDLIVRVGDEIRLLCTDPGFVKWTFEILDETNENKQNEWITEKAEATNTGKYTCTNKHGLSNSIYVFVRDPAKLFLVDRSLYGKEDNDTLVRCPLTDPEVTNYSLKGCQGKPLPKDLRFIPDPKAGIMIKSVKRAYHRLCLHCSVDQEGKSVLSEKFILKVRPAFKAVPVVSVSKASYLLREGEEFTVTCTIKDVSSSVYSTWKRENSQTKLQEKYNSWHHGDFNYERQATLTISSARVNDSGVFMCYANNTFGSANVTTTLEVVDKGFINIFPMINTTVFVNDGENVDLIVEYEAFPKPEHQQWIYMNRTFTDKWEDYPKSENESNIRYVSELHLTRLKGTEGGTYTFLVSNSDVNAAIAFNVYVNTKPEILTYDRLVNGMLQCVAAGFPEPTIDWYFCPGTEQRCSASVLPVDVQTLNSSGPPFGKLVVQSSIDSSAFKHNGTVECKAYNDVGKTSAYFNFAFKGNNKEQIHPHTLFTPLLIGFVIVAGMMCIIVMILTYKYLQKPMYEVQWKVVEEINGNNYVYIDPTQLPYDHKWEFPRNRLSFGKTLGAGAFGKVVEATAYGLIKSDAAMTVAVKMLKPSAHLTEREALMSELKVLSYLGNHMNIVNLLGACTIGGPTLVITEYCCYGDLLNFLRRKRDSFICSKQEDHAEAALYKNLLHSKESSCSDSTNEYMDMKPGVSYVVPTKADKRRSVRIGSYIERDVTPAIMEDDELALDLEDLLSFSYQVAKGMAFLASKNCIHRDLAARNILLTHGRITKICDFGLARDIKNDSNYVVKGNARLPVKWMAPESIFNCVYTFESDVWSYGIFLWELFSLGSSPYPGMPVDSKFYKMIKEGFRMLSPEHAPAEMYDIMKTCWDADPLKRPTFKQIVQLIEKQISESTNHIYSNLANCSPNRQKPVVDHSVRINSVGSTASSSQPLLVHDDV
# Sequence of Vascular endothelial growth factor receptor 1 (P17948 whole entry): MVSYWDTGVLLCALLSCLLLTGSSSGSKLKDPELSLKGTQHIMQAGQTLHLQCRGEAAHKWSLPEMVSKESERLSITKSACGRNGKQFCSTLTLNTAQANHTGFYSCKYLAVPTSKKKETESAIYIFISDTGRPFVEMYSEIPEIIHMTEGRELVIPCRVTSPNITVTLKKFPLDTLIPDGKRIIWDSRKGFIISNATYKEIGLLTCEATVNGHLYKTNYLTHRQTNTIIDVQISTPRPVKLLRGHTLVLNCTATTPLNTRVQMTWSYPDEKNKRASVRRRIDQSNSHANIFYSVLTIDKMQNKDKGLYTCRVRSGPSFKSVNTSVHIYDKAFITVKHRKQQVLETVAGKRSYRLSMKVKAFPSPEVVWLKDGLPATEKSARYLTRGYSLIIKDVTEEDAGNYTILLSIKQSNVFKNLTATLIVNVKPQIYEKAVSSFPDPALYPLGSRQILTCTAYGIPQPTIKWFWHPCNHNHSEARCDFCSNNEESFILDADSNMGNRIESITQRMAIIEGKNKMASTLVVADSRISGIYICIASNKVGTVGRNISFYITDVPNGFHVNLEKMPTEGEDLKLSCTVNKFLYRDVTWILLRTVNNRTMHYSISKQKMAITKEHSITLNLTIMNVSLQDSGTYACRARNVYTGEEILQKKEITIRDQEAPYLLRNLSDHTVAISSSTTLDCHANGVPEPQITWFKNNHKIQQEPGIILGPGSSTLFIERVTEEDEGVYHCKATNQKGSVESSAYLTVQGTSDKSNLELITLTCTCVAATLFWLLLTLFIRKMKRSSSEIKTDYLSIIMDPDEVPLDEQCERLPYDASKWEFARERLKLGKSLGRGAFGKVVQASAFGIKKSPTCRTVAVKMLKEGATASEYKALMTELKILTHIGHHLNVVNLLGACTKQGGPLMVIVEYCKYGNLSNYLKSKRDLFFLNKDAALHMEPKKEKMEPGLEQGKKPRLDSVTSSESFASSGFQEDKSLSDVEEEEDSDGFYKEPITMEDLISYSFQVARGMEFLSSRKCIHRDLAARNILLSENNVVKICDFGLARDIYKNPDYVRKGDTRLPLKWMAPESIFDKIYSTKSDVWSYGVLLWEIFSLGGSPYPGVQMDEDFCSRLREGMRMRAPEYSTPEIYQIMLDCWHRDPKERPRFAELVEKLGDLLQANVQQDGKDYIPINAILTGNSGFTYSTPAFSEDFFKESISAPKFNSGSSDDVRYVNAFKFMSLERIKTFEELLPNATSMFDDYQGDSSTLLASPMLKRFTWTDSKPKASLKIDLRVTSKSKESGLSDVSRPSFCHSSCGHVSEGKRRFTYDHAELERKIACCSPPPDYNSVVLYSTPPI
smiles,measurement,setting,value
CO/N=C/c1c(N)ncnc1Oc1ccc(NC(=O)NC2CC2)c(Cl)c1,IC50,[1],0.029 µM
CO/N=C/c1c(N)ncnc1Oc1ccc(NC(=O)Nc2ccccc2OC)c(Cl)c1,IC50,[1],0.0025 µM
CO/N=C/c1c(N)ncnc1Oc1ccc(NC(=O)Nc2nc(C)c(C)s2)c(Cl)c1,IC50,[1],0.002 µM
CO/N=C/c1c(N)ncnc1Oc1ccc(NC(C)=O)cc1Cl,IC50,[1],2.21 µM
CCNC(=O)Nc1ccc(Oc2ncnc(N)c2/C=N/OC)cc1Cl,half-life,[2],10 h
same,F,Rattus norvegicus [3],30%
same,Activity,Mus musculus [4],Non-toxic
same,IC50,[5],4.8 µM
same,Cmax,[6],5400 ng/mL
same,Cmax,[7],1030 ng/mL
same,Activity,A-431 [8],Dose-dependent effect
same,inhibition (INH),A-431 [9],90%
same,IC50,[10],0.513 µM
same,IC50,[11],4.42 µM
same,inhibition in vivo at 100 mg/kg,A-375 [12],90%
same,inhibition (INH),HCT-116 [13],90%
same,AUC,Mus musculus [14],6114 ng·h/mL
same,Vd,[15],0.7 L/kg
same,F,Mus musculus [16],16%
same,AUC,Mus musculus [17],12305 ng·h/mL
same,clearance,[18],5.6 mL/min/kg
same,Activity,HCT-116 [19],inactive
same,Activity,HCT-116 [20],Dose-dependent effect
same,clearance,[21],7.4 mL/min/kg
same,half-life,[22],2.1 h
same,Cmax,[23],2990 ng/mL
same,half-life,[24],0.7 h
same,half-life,[25],2.8 h
same,Cmax,[26],2790 ng/mL
same,Activity,A-375 [27],inactive
same,Vd,[28],0.4 L/kg
same,AUC,Rattus norvegicus [29],4799 ng·h/mL
CCNC(=O)Nc1ccc(Oc2ncnc(N)c2/C=N/OC)cc1,IC50,[1],0.142 µM
CO/N=C/c1c(N)ncnc1Oc1ccc(NC(=O)NC2CCCCC2)c(Cl)c1,IC50,[1],0.0065 µM
CNC(=O)Nc1ccc(Oc2ncnc(N)c2/C=N/OC)cc1Cl,IC50,[1],0.025 µM
CO/N=C/c1c(N)ncnc1Oc1ccc(NC(=O)Nc2cccc(F)c2)c(Cl)c1,IC50,[1],0.0017 µM
CO/N=C/c1c(N)ncnc1Oc1ccc(NC(=O)Nc2ccccc2C)c(Cl)c1,IC50,[1],0.0079 µM
CO/N=C/c1c(N)ncnc1Oc1ccc(NC(=O)Nc2cccnc2)c(Cl)c1,IC50,[1],0.01 µM
CNC(=O)Nc1ccc(Oc2ncnc(N)c2/C=N/OC)c(Br)c1,IC50,[1],> 100 µM
CO/N=C/c1c(N)ncnc1Oc1ccc(NC(=O)NCCO)c(Cl)c1,IC50,[1],0.168 µM
CO/N=C/c1c(N)ncnc1Oc1ccc(NC(=O)Nc2ccc(F)cc2F)c(Cl)c1,IC50,[1],0.003 µM
CO/N=C/c1c(N)ncnc1Oc1ccc(NC(=O)Nc2nccs2)c(Cl)c1,IC50,[1],0.0034 µM
CO/N=C/c1c(N)ncnc1Oc1ccc(NC(=O)NCCN(C)C)c(Cl)c1,IC50,[1],0.285 µM
CO/N=C/c1c(N)ncnc1Oc1ccc(NC(=O)Nc2ccncc2)c(Cl)c1,IC50,[1],0.011 µM
CO/N=C/c1c(N)ncnc1Oc1ccc(NC(=O)Nc2cc(C)on2)c(Cl)c1,IC50,[1],0.002 µM
CO/N=C/c1c(N)ncnc1Oc1ccc(NC(=O)NC(C)C)c(Cl)c1,IC50,[1],0.073 µM
CO/N=C/c1c(N)ncnc1Oc1ccc(NC(=O)OC)cc1Cl,IC50,[1],0.152 µM
CNC(=O)Cc1ccc(Oc2ncnc(N)c2/C=N/OC)cc1,IC50,[1],19.7 µM
CO/N=C/c1c(N)ncnc1Oc1ccc(NC(=O)NCc2ccc(F)cc2F)c(Cl)c1,IC50,[1],0.0103 µM
CNC(=O)Nc1ccc(Oc2ncnc(N)c2/C=N/OC)c(F)c1,IC50,[1],0.142 µM
CO/N=C/c1c(N)ncnc1Oc1ccc(NC(=O)Nc2ccccn2)c(Cl)c1,IC50,[1],0.034 µM
CO/N=C/c1c(N)ncnc1Oc1ccc(NC(=O)NCCCCN2CCCC2)c(Cl)c1,IC50,[1],0.759 µM
CO/N=C/c1c(N)ncnc1Oc1ccc(NC(=O)Nc2ccccc2Cl)c(Cl)c1,IC50,[1],0.0026 µM
CCCNC(=O)Nc1ccc(Oc2ncnc(N)c2/C=N/OC)cc1Cl,IC50,[1],0.028 µM
CO/N=C/c1c(N)ncnc1Oc1ccc(NC(=O)Nc2ccccc2F)c(Cl)c1,IC50,[1],0.0033 µM
CCNC(=O)Oc1ccc(Oc2ncnc(N)c2/C=N/OC)cc1,IC50,[1],> 100 µM
CO/N=C/c1c(N)ncnc1Oc1ccc(NC(=O)Nc2ccccc2)c(Cl)c1,IC50,[1],0.003 µM
CO/N=C/c1c(N)ncnc1Oc1ccc(NC(=O)Nc2ccc(F)cc2)c(Cl)c1,IC50,[1],0.0028 µM
CCNC(=O)Nc1ccc(Oc2ncnc(N)c2/C=N/OC)c(C)c1,IC50,[1],0.18 µM
CO/N=C/c1c(N)ncnc1Oc1ccc(NC(=O)NCCCO)c(Cl)c1,IC50,[1],0.4 µM
